Values of other authors as cited in patent publication US20090317487A1, “KITS FOR PREVENTION AND TREATMENT OF RHINITIS” (priority 2006, published 2009).

Tested on: infectious rhinitis (common cold)
Conditions: patients; literature studies (Mossad 1996, Prasad 2000, Farr 1987)

SMILES | effect on severity and/or duration of infectious rhinitis (common cold)
CC(=O)[O-].CC(=O)[O-].[Zn+2] [zinc acetate] | reduced duration of infection
[Zn] [zinc] | significant effect on the severity and duration of infectious rhinitis
